This is an account of results in US7985876B2, “Substituted dibenzoic acid derivatives and use thereof” (Bayer Schering Pharma Aktiengesellschaft, priority 2007, dated 2011).

The test system of one assay is saphenous artery rings. Kind of assay: Vasorelaxant effect in vitro (phenylephrine-contracted artery rings). In kind it is cell-based, Rabbits. As to conditions: Oryctolagus cuniculus; rabbit saphenous artery rings, contraction induced by phenylephrine. As to the method: Rabbits are anesthetized and sacrificed by intravenous injection of thiopental sodium (about 50 mg/kg) and exsanguinated. The saphenous artery is removed and divided into rings 3 mm wide. The rings are mounted singly on in each case a pair of triangular hooks open at the end and made of 0.3 mm-thick special wire (Remanium®). Each ring is placed under an initial tension in 5 ml organ baths with Krebs-Henseleit solution which is at 37° C., is gassed with 95% O2/5% CO2 and has the following composition: NaCl 119 mM; KCl 4.8 mM; CaCl2×2H2O 1 mM; MgSO4×7H2O 1.4 mM; KH2PO4 1.2 mM; NaHCO3 25 mM; glucose 10 mM; bovine serum albumin 0.001%. The force of contraction is detected with Statham UC2 cells, amplified and digitized via A/D converters (DAS-1802 HC, Keithley Instruments, Munich) and recorded in parallel on chart recorders. Contractions are induced by addition of phenylephrine.
After several (generally 4) control cycles, the substance to be investigated is added in each further run in increasing dosage, and the height of the contraction achieved under the influence of the test substance is compared with the height of the contraction reached in the last preceding run. The concentration necessary to reduce the contraction reached in the preceding control by 50% is calculated from this (IC50). The standard application volume is 5 μl. […]

For assay [1], the target named is T1, Heme-containing sGC (recombinant soluble guanylate cyclase) (Rattus norvegicus, UniProt P20595).
T1 construct: made in house
T1 sequence (P20595 1-619): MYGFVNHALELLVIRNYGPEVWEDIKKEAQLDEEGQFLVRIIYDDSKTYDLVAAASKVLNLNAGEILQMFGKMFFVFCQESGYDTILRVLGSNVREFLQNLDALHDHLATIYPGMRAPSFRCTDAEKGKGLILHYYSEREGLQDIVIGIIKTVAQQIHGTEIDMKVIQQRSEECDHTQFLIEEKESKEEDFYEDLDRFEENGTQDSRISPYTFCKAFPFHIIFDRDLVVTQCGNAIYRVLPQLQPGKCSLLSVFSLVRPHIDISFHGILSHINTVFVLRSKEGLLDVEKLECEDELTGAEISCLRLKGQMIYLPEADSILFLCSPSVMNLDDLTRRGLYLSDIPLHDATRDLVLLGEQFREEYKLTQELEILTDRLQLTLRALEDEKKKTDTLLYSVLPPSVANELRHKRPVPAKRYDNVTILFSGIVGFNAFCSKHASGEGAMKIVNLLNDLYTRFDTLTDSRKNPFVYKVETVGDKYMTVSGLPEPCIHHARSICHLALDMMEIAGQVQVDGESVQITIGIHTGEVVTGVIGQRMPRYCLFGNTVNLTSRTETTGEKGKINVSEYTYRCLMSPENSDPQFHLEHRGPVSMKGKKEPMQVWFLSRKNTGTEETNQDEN
T1 sequence (P19686 1-690 partner): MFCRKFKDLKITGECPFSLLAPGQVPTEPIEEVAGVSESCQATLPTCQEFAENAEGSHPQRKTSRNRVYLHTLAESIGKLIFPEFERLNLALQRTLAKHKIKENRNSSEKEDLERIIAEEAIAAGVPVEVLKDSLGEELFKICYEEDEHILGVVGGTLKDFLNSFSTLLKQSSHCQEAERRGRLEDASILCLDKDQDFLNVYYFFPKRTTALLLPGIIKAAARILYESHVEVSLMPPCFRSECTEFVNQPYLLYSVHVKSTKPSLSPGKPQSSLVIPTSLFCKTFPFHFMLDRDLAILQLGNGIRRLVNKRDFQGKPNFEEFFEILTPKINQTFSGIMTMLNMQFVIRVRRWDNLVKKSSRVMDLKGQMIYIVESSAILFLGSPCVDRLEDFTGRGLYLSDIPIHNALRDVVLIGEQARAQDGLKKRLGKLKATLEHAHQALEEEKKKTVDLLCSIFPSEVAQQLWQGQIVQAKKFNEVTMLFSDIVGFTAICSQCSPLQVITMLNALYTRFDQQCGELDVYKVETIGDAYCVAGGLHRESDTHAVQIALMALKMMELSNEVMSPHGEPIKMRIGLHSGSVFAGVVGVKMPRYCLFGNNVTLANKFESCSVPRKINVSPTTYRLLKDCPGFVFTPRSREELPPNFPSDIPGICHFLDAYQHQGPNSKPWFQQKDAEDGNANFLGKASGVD
Kind of assay: Stimulation of recombinant soluble guanylate cyclase (sGC) in vitro, heme-containing enzyme. In kind it is biochemical. From the text: Hoenicka, E. M. Becker, H. Apeler, T. Sirichoke, H. Schroeder, R. Gerzer and J.-P. Stasch, “Purified soluble guanylyl cyclase expressed in a baculovirus/Sf9 system: Stimulation by YC-1, nitric oxide, and carbon oxide”, J. Mol. Med. 77 (1999), 14-23. The heme-free guanylate cyclase is obtained by adding Tween 20 to the sample buffer (0.5% in the final concentration).
(§1) The activation of sGC by a test substance is reported as n-fold stimulation of the basal activity.

The target of assay [2] is T2, Heme-free sGC (recombinant soluble guanylate cyclase) (Rattus norvegicus, UniProt P20595).
T2 construct: made in house
T2 sequence (P20595 1-619): T1 sequence (P20595 1-619)
T2 sequence (P19686 1-690 partner): T1 sequence (P19686 1-690 partner)
Kind of assay: Stimulation of recombinant soluble guanylate cyclase (sGC) in vitro, heme-free enzyme. Type of assay: biochemical. The protocol: Investigations on the stimulation of recombinant soluble guanylate cyclase (sGC) by the compounds according to the invention with and without sodium nitroprusside, and with and without the heme-dependent sGC inhibitor 1H-1,2,4-oxadiazole-(4,3a)-quinoxalin-1-one (ODQ) are carried out by the method described in detail in the following reference: M. Hoenicka, E. M. Becker, H. Apeler, T. Sirichoke, H. Schroeder, R. Gerzer and J.-P. Stasch, “Purified soluble guanylyl cyclase expressed in a baculovirus/Sf9 system: Stimulation by YC-1, nitric oxide, and […]”, J. Mol. Med. 77 (1999), 14-23. The heme-free guanylate cyclase is obtained by adding Tween 20 to the sample buffer (0.5% in the final concentration).
as §1

The compound `O=C(O)c1ccc(CCC(/C=C/c2cc(F)ccc2OCc2ccc(C(F)(F)F)cc2)CCc2ccc(C(=O)O)cc2)cc1` [Example 1, 4-[(4E)-3-[2-(4-Carboxyphenyl)ethyl]-5-(5-fluoro-2-{[4-(trifluoromethyl)benzyl]oxy}phenyl)pent-4-en-1-yl]benzoic acid] registered an IC50 in the assay on saphenous artery rings of 250 nM. Further, the “Stimulation (n-fold) heme-containing sGC, +0.1 μM DEA/NO” value is 24.1 n-fold in assay [1] (0.01 μM Example 1), 25.5 n-fold in assay [1] (0.1 μM Example 1), 33.4 n-fold in assay [1] (1 μM Example 1) and 41.5 n-fold in assay [1] (10 μM Example 1). Further, the “Stimulation (n-fold) heme-containing sGC, +10 μM ODQ” value in assay [1] (0.01 μM Example 1) was 7.0 n-fold; in assay [1] (0.1 μM Example 1), 16.2 n-fold; in assay [1] (1 μM Example 1), 60.6 n-fold; in assay [1] (10 μM Example 1), 92.2 n-fold. For the same compound, the “Stimulation (n-fold) heme-containing sGC, basal” value in assay [1] (0.01 μM Example 1) is given as 1.3 n-fold; in assay [1] (0.1 μM Example 1) it was 1.9 n-fold; in assay [1] (1 μM Example 1) it was 6.4 n-fold; in assay [1] (10 μM Example 1), 11.0 n-fold. The “Synergy with the NO donor DEA/NO on sGC stimulation” value in assay [1] (combination of Example 1 and DEA/NO) is listed as “no synergistic effect”. For the same compound, the “Stimulation (n-fold) heme-free sGC, basal” value in assay [2] (0.01 μM Example 1, heme-free by 0.5% Tween 20) is reported as 1.0 n-fold; in assay [2] (0.1 μM Example 1, heme-free by 0.5% Tween 20), 2.3 n-fold; in assay [2] (1 μM Example 1, heme-free by 0.5% Tween 20), 9.1 n-fold; in assay [2] (10 μM Example 1, heme-free by 0.5% Tween 20), 16.7 n-fold.
